Reference: patent US20260014358A1, “THERMALLY REGULATED TRANSDERMAL DRUG DELIVERY SYSTEM” (Morningside Venture Investments Limited, priority 2018, published 2026)
Like-named read-outs stand apart in the source and are kept apart here.

Details: for Nicotine flow across the skin: passive matrix-type patch containing 21 mg nicotine on human cadaver skin, average of test patches (n=4)
Experimental: Experiments were carried out by applying passive matrix-type nicotine patches containing 21 mg of nicotine to human cadaver skin and then periodically heating and cooling the patches over a period of 20 hours. Controls with no heating and cooling were tested concurrently. The test patches were subject to 3 cycles of heating and cooling while the control patches were not. Patches were heated for 2 hours, cooled for 5 hours, heated for 2 hours, cooled for 4 hours, heated for 2 hours, and cooled. Nicotine delivery across the skin was measured and averaged for control patches (n=2) and test patches (n=4).

SMILES: CN1CCCC1c1cccnc1 (stereo not shown) [Nicotine]
- Nicotine flow across the skin (first 2-hour heating period): around 4.9 mg/hr
- Change of nicotine flow across the skin when heat was applied (heated and cooled test patches, 3 cycles over 20 hours, human cadaver skin): increased
- Nicotine flow across the skin (second 2-hour heating period (after 5 hours cooling)): around 2.5 mg/hr
- Nicotine flow across the skin (third 2-hour heating period (after 4 hours cooling)): around 1.8 mg/hr
